From ChEMBL document CHEMBL1795331, “Synthesis and biological activity of optically active NCL-1, a lysine-specific demethylase 1 selective inhibitor” (Bioorg Med Chem, 2011)

Legend:
HeLa = test: cells; settings: Homo sapiens, 48 h
Description: Growth inhibition of human HeLa cells after 48 hrs by MTT assay

SH-SY5Y = test: cells; settings: Homo sapiens, 48 h
Description: Growth inhibition of human SH-SY5Y cells after 48 hrs by MTT assay

in vitro = settings: human, HEK293 cells
Description: Growth inhibition of human HEK293 cells after 48 hrs by MTT assay

GI50 (HeLa) | GI50 (SH-SY5Y) | GI50 at 48 h (in vitro) | SMILES
20 µM | 9 µM | 17 µM | N[C@H]1C[C@@H]1c1cccc(OCC[C@H](NC(=O)c2ccccc2)C(=O)NCc2ccccc2)c1
74 µM | 9 µM | 25 µM | N[C@@H]1C[C@H]1c1cccc(OCC[C@H](NC(=O)c2ccccc2)C(=O)NCc2ccccc2)c1
